The test system of the data set is human SMAD7 mRNA. Briefly: Antisense inhibition of human SMAD7 mRNA expression in Hep3B cells by 3-10-3 cEt gapmers, 10,000 nM, electroporation (Example 2). The data set is classed as cell-based. The settings on record: approximately 24 hours. The method in brief: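 qRT-PCR (RTS5062) of SMAD7 mRNA, normalised to RIBOGREEN total RNA, gave percent inhibition relative to untreated controls. Hep3B cells at 20,000 per well received 10,000 nM oligonucleotide by electroporation, with ~24 h treatment.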

Setting [1] is: Hep3B cells, 10,000 nM antisense oligonucleotide, electroporation, RT-PCR primer probe set RTS5062, relative to untreated control cells.
Where [2] appears, read: Hep3B cells, electroporation with 10,000 nM antisense oligonucleotide, SMAD7 mRNA by RT-PCR (RTS5062), relative to untreated control cells.
[3] abbreviates: Hep3B cells, electroporation, 10,000 nM antisense oligonucleotide, RTS5062, relative to untreated control cells.
The mark [4] stands for this setting: Hep3B cells, electroporation with 10,000 nM antisense oligonucleotide, RTS5062, percent inhibition of SMAD7 mRNA relative to untreated control cells.
Where [5] appears, read: SMAD7 mRNA, Hep3B cells, 10,000 nM antisense oligonucleotide, electroporation, primer probe set RTS5062, relative to untreated control cells.

Strand notation (5' to 3'): a small letter for the sugar, then the base; units joined by * are phosphorothioate-linked, units joined directly phosphodiester-linked; [ ] holds rarer units or linkages, { } end groups; capitals alone tell only the bases. k = constrained ethyl (cEt); [5mC] = 5-methylcytosine; d = 2'-deoxy (DNA)

For the substance “798874 (kG*k[5mC]*kA*dG*dG*d[5mC]*dT*dG*dT*dA*d[5mC]*dG*d[5mC]*k[5mC]*kT*kT; antisense) [compound 798874]”, the “% Inhibition” value under setting [1] worked out at 27%. Take “798717 (antisense kA*kG*k[5mC]*d[5mC]*d[5mC]*dT*dG*d[5mC]*d[5mC]*d[5mC]*dG*dG*dG*k[5mC]*k[5mC]*kG) [compound 798717]”: the “% Inhibition” value under setting [2] turned out to be 18%. “799735 (antisense kT*k[5mC]*k[5mC]*dA*d[5mC]*dG*dG*dG*dA*dG*dT*dG*dG*kA*kA*kG) [compound 799735]”: the “% inhibition of SMAD7 mRNA expression” value under setting [3] is on record as 0%. “829949 (k[5mC]*k[5mC]*kG*dG*dG*d[5mC]*dA*dG*d[5mC]*d[5mC]*dA*dG*dT*kT*kA*kA; antisense) [compound 829949]”: for the setting “SMAD7 mRNA, Hep3B cells, electroporation with 10,000 nM antisense oligonucleotide, primer probe set RTS5062, relative to untreated control cells”, the “% Inhibition” value was 19%. Take “799525 (antisense kA*kG*kG*dT*dT*dT*dG*dG*dG*dT*dT*dG*dG*kA*k[5mC]*kT) [compound 799525]”: the “% Inhibition” value under setting [4] worked out at 8%. Regarding “798905 (kG*kG*k[5mC]*dT*dG*dT*dT*dG*dA*dA*dG*dA*dT*kG*kA*k[5mC]; antisense) [compound 798905]”, the “% Inhibition” value under setting [2] is 35%.

For “799606 (kT*kT*kT*dA*d[5mC]*dA*dA*dA*dA*d[5mC]*dT*d[5mC]*dT*k[5mC]*kT*kG; antisense) [compound 799606]”, under setting [4], the “% Inhibition” value amounted to 50%.

As to “799732 (antisense kG*kG*kG*dA*dT*d[5mC]*dA*dG*dG*dT*dG*dA*dG*kT*kG*kT) [compound 799732]”, the “% inhibition of SMAD7 mRNA expression” value under setting [3] was 48%. Consider “829793 (kT*k[5mC]*kT*dT*d[5mC]*d[5mC]*d[5mC]*dG*dT*dA*dA*dG*dA*kT*kT*k[5mC]; antisense) [compound 829793]”, for which the “% Inhibition” value under setting [5] was determined as 41%. Consider “772813 (kA*kA*kG*dG*dG*d[5mC]*dG*d[5mC]*dA*dG*dG*dA*dA*kA*kG*kG; antisense) [compound 772813]”, for which, under setting [3], the “% inhibition of SMAD7 mRNA expression” value came out at 43%. Turning to “799642 (kG*k[5mC]*kA*dA*dA*dT*d[5mC]*d[5mC]*dT*dT*dT*d[5mC]*d[5mC]*kA*kT*k[5mC]; antisense) [compound 799642]”, under setting [4], the “% Inhibition” value was determined as 53%. On the same count and under the same terms, next, “799650 (antisense k[5mC]*kA*kG*d[5mC]*dA*dG*dA*d[5mC]*dA*dG*dG*d[5mC]*dA*kA*kA*kA) [compound 799650]”: 46%. Consider “799839 (antisense kA*kG*k[5mC]*dA*d[5mC]*dA*dA*dT*dA*dT*dG*dA*dA*kT*kG*kT) [compound 799839]”, for which the “% Inhibition” value under setting [1] worked out at 36%.

For the substance “799741 (antisense kA*kG*kT*dT*dA*dT*d[5mC]*dA*d[5mC]*d[5mC]*d[5mC]*dT*dG*kT*kT*kT) [compound 799741]”, under setting [4], the “% Inhibition” value is recorded as 32%. As to “798695 (antisense kT*kG*k[5mC]*dG*d[5mC]*d[5mC]*d[5mC]*dT*d[5mC]*d[5mC]*dT*d[5mC]*d[5mC]*kT*k[5mC]*kG) [compound 798695]”, the “% Inhibition” value under setting [2] was 35%. On the same count and under the same terms, the figure for “799474 (antisense k[5mC]*kA*kA*dG*dA*dG*dT*d[5mC]*d[5mC]*dA*dG*d[5mC]*d[5mC]*k[5mC]*kT*kA) [compound 799474]” is 39%; for “830164 (antisense kG*k[5mC]*kT*dG*d[5mC]*dT*dT*dG*dG*d[5mC]*d[5mC]*dT*dT*kA*k[5mC]*k[5mC]) [compound 830164]” it is 38%. As to “799085 (antisense kG*k[5mC]*k[5mC]*d[5mC]*dT*dT*dG*dG*dG*dA*dA*dG*d[5mC]*k[5mC]*k[5mC]*kA) [compound 799085]”, for the setting “Hep3B cells, electroporation with 10,000 nM antisense oligonucleotide, primer probe set RTS5062, relative to untreated control cells”, the “% inhibition of SMAD7 mRNA expression” value was found to be 10%.

For the substance “829748 (antisense k[5mC]*kT*k[5mC]*dG*d[5mC]*d[5mC]*dG*d[5mC]*d[5mC]*dG*dG*dG*d[5mC]*kG*k[5mC]*kA) [compound 829748]”, the “% Inhibition” value under setting [5] was 43%. Turning to “799494 (antisense kA*kG*kG*dA*dT*dA*d[5mC]*dA*d[5mC]*dT*dT*dA*dA*kT*k[5mC]*kA) [compound 799494]”, the “% Inhibition” value under setting [2] is 45%.

(Values after US10517889B2, “Modulators of SMAD7 expression” (Ionis Pharmaceuticals, Inc., priority 2017, dated 2019).)
